As a reminder, the EC50 is the midpoint of the concentration-response curve. The IC50 is the point on the concentration scale where inhibition reaches its midpoint.

Where two headings read alike, the source gives them in different places.

The target in assay [1] is T1, recombinant human CB1 receptor expressed in CHO cells (Homo sapiens, UniProt P21554).
T1 construct: expressed in transfected cells; CB1-CHO cell suspension for cAMP
The experiment in a line: Cannabinoid Receptor-1 (CB1) Functional Activity Assay (cAMP). Format: cell-based. How it is done: The functional activation of CB1 receptor is based on recombinant human CBI receptor expressed in CHO cells (Felder et al, Mol. Pharmacol. 48: 443-450, 1995). To determine the agonist activity or inverse agonist activity of any test compound, 50 ul of CB1-CHO cell suspension are mixed with test compound and 70 ul assay buffer containing 0.34 mM 3-isobutyl-1-methylxanthine and 5.1 uM of forskolin in 96-well plates. The assay buffer is comprised of Earle's Balanced Salt Solution supplemented with 5 mM MgCl2, 1 mM glutamine, 10 mM HEPES, and 1 mg/mL bovine serum albumin. The mixture is incubated at room temperature for 30 minutes, and terminated by adding 30 μl/well of 0.5M HCl. The total intracellular cAMP level is quantitated using the New England Nuclear Flashplate and cAMP radioimmunoassay kit.

Assay [2] concerns the target T2, recombinant human CB1 receptor (Homo sapiens, UniProt P21554).
T2 construct: expressed in transfected cells; CB1-CHO cell suspension for cAMP
In words: Cannabinoid Receptor-1 (CB1) Binding Assay. Here is the method: Binding affinity determination is based on recombinant human CB1 receptor expressed in Chinese Hamster Ovary (CHO) cells (Felder et al, Mol. Pharmacol. 48: 443-450, 1995). Total assay volume is 250 μl (240 μl CB1 receptor membrane solution plus 5 μl test compound solution plus 5 μl [3H]CP-55940 solution). Final concentration of [3H]CP-55940 is 0.6 nM. Binding buffer contains 50 mM Tris-HCl, pH7.4, 2.5 mM EDTA, 5 mM MgCl2, 0.5 mg/mL fatty acid free bovine serum albumin and protease inhibitors (Cat#P8340, from Sigma). To initiate the binding reaction, 5 μl of radioligand solution is added, the mixture is incubated with gentle shaking on a shaker for 1.5 h at 30° C. The binding is terminated by using 96-well harvester and filtering through GF/C filter presoaked in 0.05% polyethylenimine. The bound radiolabel is quantitated using scintillation counter. Apparent binding affinities for various compounds are calculated from IC50 values (DeBlasi et al., Trends Pharmacol Sci 10: 227-229, 1989).

Where [3] appears, read: CB1-CHO cells, forskolin, intracellular cAMP, read-out: CB1 function activity EC50.
Setting [4] is: recombinant human CB1 receptor in CHO cells, [3H]CP-55940 0.6 nM, read-out: CB1 binding IC50.

T2 sequence (P21554 whole entry): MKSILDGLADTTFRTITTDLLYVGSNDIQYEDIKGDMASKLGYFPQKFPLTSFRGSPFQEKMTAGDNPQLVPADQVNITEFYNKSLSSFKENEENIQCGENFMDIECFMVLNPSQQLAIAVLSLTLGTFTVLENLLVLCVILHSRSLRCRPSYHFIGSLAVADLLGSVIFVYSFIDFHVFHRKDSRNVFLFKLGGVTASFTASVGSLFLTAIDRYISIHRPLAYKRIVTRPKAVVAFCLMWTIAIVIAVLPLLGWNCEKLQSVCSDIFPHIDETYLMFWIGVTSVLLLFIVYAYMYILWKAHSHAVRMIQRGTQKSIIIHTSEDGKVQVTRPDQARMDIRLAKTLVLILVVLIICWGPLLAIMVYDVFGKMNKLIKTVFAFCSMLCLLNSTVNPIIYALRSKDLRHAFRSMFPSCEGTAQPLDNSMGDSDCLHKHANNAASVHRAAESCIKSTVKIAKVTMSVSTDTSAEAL
T1 sequence (P21554 whole entry): as above

As for `O=C(N1CCCCC1)N1CCN(S(=O)(=O)c2cccc3ccccc23)CC1` [Example 83, 4-(piperidin-1-yl-carbonyl)-1-(1-naphthylsulfonyl) piperazine], the EC50 in assay [1] (setting [3]) was 10.5 nM. Besides, the 50% inhibitory concentration (IC50) in assay [2] (setting [4]) stood at 3790 nM.

Regarding `O=C(c1ccccc1)N1CCN(S(=O)(=O)c2cc(C(F)(F)F)cc(C(F)(F)F)c2)CC1` [Example 89, 4-benzoyl-1-((3,5-bis(trifluoromethyl)phenyl)sulfonyl)piperazine], the half-maximal effective concentration (EC50) in assay [1] (setting [3]) turned out to be 37.7 nM. In addition, in assay [2] (setting [4]), the IC50 was 3220 nM.

For `O=C(Cc1ccc(C(F)(F)F)cc1)N1CCN(S(=O)(=O)c2cc(C3CC3)cc(C(F)(F)F)c2)CC1` [Example 123, 4-(4-trifluoromethylphenyl-acetyl)-1-((3-cyclopropyl-5-trifluoromethyl-phenyl)sulfonyl)piperazine], in assay [1] (setting [3]), the EC50 came to 1.09 nM. Also, the IC50 in assay [2] came to 1.24 nM.

`O=C(C1CCCCC1)N1CCN(S(=O)(=O)c2cc(Cl)cc(Cl)c2)CC1` [Example 101, 4-(cyclohexyl-carbonyl)-1-((3,5-dichlorophenyl)sulfonyl)piperazine]: the EC50 in assay [1] (setting [3]) is 0.41 nM. Also, the IC50 in assay [2] (setting [4]) was 422 nM.

As to `O=C(CC1CC1)N1CCN(S(=O)(=O)c2cccc3ccccc23)CC1` [Example 17, 4-(cyclopropyl-acetyl)-1-(1-naphthylsulfonyl)piperazine], the 50% effective concentration (EC50) in assay [1] (setting [3]) is 1.1 nM. The IC50 in assay [2] (setting [4]) was found to be 303 nM.

In the case of `O=C(C1CCCCC1)N1C2CCC1CN(S(=O)(=O)c1cccc3ccccc13)C2` [Example 114, 8-(cyclohexylcarbonyl)-3-(1-naphthylsulfonyl)-3,8-diazabicyclo[3.2.1]octane], the concentration giving a half-maximal response (EC50) in assay [1] is 15.1 nM. Besides, the half-inhibitory concentration (IC50) in assay [2] came out at 3190 nM.

Turning to `O=C(C1CCCCC1)N1CCN(S(=O)(=O)c2cc(C(F)(F)F)cc(C(F)(F)F)c2)CC1` [Example 132, 4-(cyclohexyl-carbonyl)-1-((3,5-bis(trifluoromethyl)phenyl)sulfonyl)piperazine], the EC50 in assay [1] was found to be 1.07 nM. Moreover, in assay [2] (setting [4]), the half-maximal inhibitory concentration (IC50) was 260 nM.

In the case of `COC(=O)c1cc(C(F)(F)F)cc(S(=O)(=O)N2CCN(C(=O)Cc3ccc(C(F)(F)F)cc3)CC2)c1` [Example 125, 4-(4-trifluoromethylphenyl-acetyl)-1-((3-methoxycarbonyl-5-trifluoromethyl-phenyl)sulfonyl)piperazine], the concentration for a half-maximal effect (EC50) in assay [1] (setting [3]) turned out to be 0.7 nM. In addition, the IC50 in assay [2] (setting [4]) came to 6.07 nM.

These data come from US20090247499A1, “SULFONYLATED PIPERAZINES AS CANNABINOID-1 RECEPTOR MODULATORS” (priority 2006, published 2009).
